From patent publication US10590105B2, “1,3-dihydroxy-phenyl derivatives useful as immunomodulators” (BRISTOL-MYERS SQUIBB COMPANY, priority 2016, dated 2020)

These compounds were tested against PD-1/PD-L1 interaction (PD-1-Ig / PD-L1-His) (Homo sapiens (Human), UniProt Q9NZQ7) (assay: PD-1/PD-L1 Homogenous Time-Resolved Fluorescence (HTRF) binding assay). Settings: PD-1/PD-L1 HTRF binding assay; value given as number; read-out: Range or IC50.
Excerpt: The ability of the compounds of formula (I) to bind to PD-L1 was investigated using a PD-1/PD-L1 Homogenous Time-Resolved Fluorescence (HTRF) binding assay.
Homogenous Time-Resolved Fluorescence (HTRF) Binding Assay.
The interaction of PD-1 and PD-L1 can be assessed using soluble, purified preparations of the extracellular domains of the two proteins. The PD-1 and PD-L1 protein extracellular domains were expressed as fusion proteins with detection tags, for PD-1, the tag was the Fc portion of Immunoglobulin (PD-1-Ig) and for PD-L1 it was the 6 histidine motif (PD-L1-His). All binding studies were performed in an HTRF assay buffer consisting of dPBS supplemented with 0.1% […] bovine serum albumin and 0.05% (v/v) Tween-20. For the h/PD-L1-His binding assay, inhibitors were pre-incubated with PD-L1-His (10 nM final) for 15 m in 4 μl of assay buffer, followed by addition of PD-1-Ig (20 nM final) in 1 μl of assay buffer and further incubation for 15 m. HTRF detection was achieved using europium crypate-labeled anti-Ig (1 nM final) and allophycocyanin (APC) labeled anti-His (20 nM final). Antibodies were diluted in HTRF detection buffer and 5 μl was dispensed on top of the binding reaction. The reaction mixture was allowed to equilibrate for 30 minutes and the resulting signal (665 nm/620 nm ratio) was obtained using an EnVision fluorometer. Additional binding assays were established between the human proteins PD-1-Ig/PD-L2-His (20 & 5 nM, respectively) and CD80-His/PD-L1-Ig (100 & 10 nM, respectively).
Recombinant Proteins. Human PD-1 (25-167) with a C-terminal human Fc domain of immunoglobulin G (Ig) epitope tag [hPD-1 (25-167)-3S-IG] and human PD-L1 (18-239) with a C-terminal His epitope tag [hPD-L1(18-239)-TVMV-His] were expressed in HEK293T cells and purified sequentially by ProteinA affinity chromatography and size exclusion chromatography. Human PD-L2-His and CD80-His was obtained through commercial sources.
Ranges are as follows: A=0.001 to 0.010 micromolar; B=0.011 to 0.150 micromolar; C=0.151 to 10 micromolar.

Chain of PD-1/PD-L1 interaction (PD-1-Ig / PD-L1-His) (Q9NZQ7 other isoform, or with tags, fused parts or gaps): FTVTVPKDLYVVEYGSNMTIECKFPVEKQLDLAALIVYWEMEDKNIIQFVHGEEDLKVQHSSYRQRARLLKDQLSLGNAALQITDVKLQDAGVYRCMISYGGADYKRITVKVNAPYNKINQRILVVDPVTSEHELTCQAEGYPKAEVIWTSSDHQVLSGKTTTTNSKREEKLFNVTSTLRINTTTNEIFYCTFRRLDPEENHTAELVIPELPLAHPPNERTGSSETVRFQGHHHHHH

Row | IC50 [µM] | Compound
1 | 0.135 | Cc1c(COc2cc(OCc3cncc(C#N)c3)c(CN[C@](C)(CO)C(=O)O)cc2Cl)cccc1-c1ccc2[nH]cnc2c1 [Example 1024, (R)-2-((4-((3-(1H-benzo[d]imidazol-5-yl)-2-methylbenzyl)oxy)-5-chloro-2-((5-cyanopyridin-3-yl)methoxy)benzyl)amino)-3-hydroxy-2-methylpropanoic acid]

Same assay, conditions: PD-1/PD-L1 HTRF binding assay; value given as range class; read-out: Range or IC50

Row | IC50 [µM] | Compound
2 | 0.151 to 10 | Cc1c(COc2cc(OCc3cncc(C#N)c3)c(CN[C@@H](CO)C(=O)O)cc2Cl)cccc1-c1cccn(CCCN2CC[C@@H](O)C2)c1=O [Example 1040, (S)-2-((5-chloro-2-((5-cyanopyridin-3-yl)methoxy)-4-((3-(1-(3-((R)-3-hydroxypyrrolidin-1-yl)propyl)-2-oxo-1,2-dihydropyridin-3-yl)-2-methylbenzyl)oxy)benzyl)amino)-3-hydroxypropanoic acid]
3 | 0.151 to 10 | Cc1c(COc2cc(OCc3cncc(C#N)c3)c(C=O)cc2Cl)cccc1-c1ccc2oc(CCN3CC[C@@H](O)C3)nc2c1 [Example 1027, (R)-5-((4-chloro-2-formyl-5-((3-(2-(2-(3-hydroxypyrrolidin-1-yl)ethyl)benzo[d]oxazol-5-yl)-2-methylbenzyl)oxy)phenoxy)methyl)nicotinonitrile]
4 | 0.011 to 0.15 | Cc1c(COc2cc(OCc3cncc(C#N)c3)c(CN[C@](C)(CO)C(=O)O)cc2Cl)cccc1-c1ccc2cccnc2c1 [Example 1001, (R)-2-((5-chloro-2-((5-cyanopyridin-3-yl)methoxy)-4-((2-methyl-3-(quinolin-7-yl)benzyl)oxy)benzyl)amino)-3-hydroxy-2-methylpropanoic acid]
5 | 0.001 to 0.01 | Cc1c(COc2cc(OCc3cncc(C#N)c3)c(CN[C@](C)(CO)C(=O)O)cc2Cl)cccc1-c1ccc2oc(CCN3CC[C@@H](O)C3)nc2c1 [Example 1028, (R)-2-((5-chloro-2-((5-cyanopyridin-3-yl)methoxy)-4-((3-(2-(2-((R)-3-hydroxypyrrolidin-1-yl)ethyl)benzo[d]oxazol-5-yl)-2-methylbenzyl)oxy)benzyl)amino)-3-hydroxy-2-methylpropanoic acid]
6 | 0.151 to 10 | Cc1c(COc2cc(OCc3cncc(C#N)c3)c(CN[C@](C)(CO)C(=O)O)cc2Cl)cccc1-c1cnc2ccccc2c1 [Example 1002, (R)-2-((5-chloro-2-((5-cyanopyridin-3-yl)methoxy)-4-((2-methyl-3-(quinolin-3-yl)benzyl)oxy)benzyl)amino)-3-hydroxy-2-methylpropanoic acid]
7 | 0.011 to 0.15 | Cc1c(COc2cc(OCc3cncc(C#N)c3)c(CN[C@](C)(CO)C(=O)O)cc2Cl)cccc1-c1ccc2ncsc2c1 [Example 1011, (R)-2-((4-((3-(benzo[d]thiazol-6-yl)-2-methylbenzyl)oxy)-5-chloro-2-((5-cyanopyridin-3-yl)methoxy)benzyl)amino)-3-hydroxy-2-methylpropanoic acid]
8 | 0.001 to 0.01 | CCC(CO)(CO)NCc1cc(Cl)c(OCc2nccc(-c3cccc(OCCCN4CCCCC4)c3C)c2C)cc1OCc1cncc(C#N)c1 [Example 2016, 5-((4-chloro-2-(((1-hydroxy-2-(hydroxymethyl)butan-2-yl)amino)methyl)-5-((3-methyl-4-(2-methyl-3-(3-(piperidin-1-yl)propoxy)phenyl)pyridin-2-yl)methoxy)phenoxy)methyl)nicotinonitrile]
9 | 0.011 to 0.15 | Cc1c(COc2cc(OCc3cncc(C#N)c3)c(CN3CCC[C@@]3(C)C(=O)O)cc2Cl)cccc1-c1ccc2scnc2c1 [Example 1023, (S)-1-(4-((3-(benzo[d]thiazol-5-yl)-2-methylbenzyl)oxy)-5-chloro-2-((5-cyanopyridin-3-yl)methoxy)benzyl)-2-methylpyrrolidine-2-carboxylic acid]
10 | 0.151 to 10 | Cc1nn(-c2cccc(COc3cc(OCc4cncc(C#N)c4)c(CN4CC[C@@H](O)C4)cc3Cl)c2C)c(C)c1CN1CC[C@@H](O)C1 [Example 2007, 5-((4-chloro-2-(((R)-3-hydroxypyrrolidin-1-yl)methyl)-5-((3-(4-(((R)-3-hydroxypyrrolidin-1-yl)methyl)-3,5-dimethyl-1H-pyrazol-1-yl)-2-methylbenzyl)oxy)phenoxy)methyl)nicotinonitrile]
11 | 0.011 to 0.15 | Cc1c(OCCCN2CC[C@@H](O)C2)cccc1-c1ccnc(COc2cc(OCc3cncc(C#N)c3)c(CN3CCCC[C@H]3C(=O)O)cc2Cl)c1C [Example 2011, (S)-1-(5-chloro-2-((5-cyanopyridin-3-yl)methoxy)-4-((4-(3-(3-((R)-3-hydroxypyrrolidin-1-yl)propoxy)-2-methylphenyl)-3-methylpyridin-2-yl)methoxy)benzyl)piperidine-2-carboxylic acid]
12 | 0.001 to 0.01 | Cc1c(COc2cc(OCc3cncc(C#N)c3)c(CNC(C)(CO)CO)cc2Cl)cccc1-c1nccc(OCCCO)c1Cl [Example 2004, 5-((4-chloro-5-((3-(3-chloro-4-(3-hydroxypropoxy)pyridin-2-yl)-2-methylbenzyl)oxy)-2-(((1,3-dihydroxy-2-methylpropan-2-yl)amino)methyl)phenoxy)methyl)nicotinonitrile]
13 | 0.011 to 0.15 | Cc1c(COc2cc(OCc3cncc(C#N)c3)c(CNC(C)(C)C(=O)O)cc2Cl)cccc1-c1ccc2ccoc2c1 [Example 1018, 2-((4-((3-(benzofuran-6-yl)-2-methylbenzyl)oxy)-5-chloro-2-((5-cyanopyridin-3-yl)methoxy)benzyl)amino)-2-methylpropanoic acid]
14 | 0.151 to 10 | Cc1c(COc2cc(OCc3cncc(C#N)c3)c(CN[C@](C)(CO)C(=O)O)cc2Cl)cccc1-c1ccc2ccccc2n1 [Example 1004, (R)-2-((5-chloro-2-((5-cyanopyridin-3-yl)methoxy)-4-((2-methyl-3-(quinolin-2-yl)benzyl)oxy)benzyl)amino)-3-hydroxy-2-methylpropanoic acid]
15 | 0.151 to 10 | Cc1c(COc2cc(OCc3cncc(C#N)c3)c(CN[C@](C)(CO)C(=O)O)cc2Cl)cccc1-c1cccn(CCCN2CC[C@@H](O)C2)c1=O [Example 1038, (R)-2-((5-chloro-2-((5-cyanopyridin-3-yl)methoxy)-4-((3-(1-(3-((R)-3-hydroxypyrrolidin-1-yl)propyl)-2-oxo-1,2-dihydropyridin-3-yl)-2-methylbenzyl)oxy)benzyl)amino)-3-hydroxy-2-methylpropanoic acid]
16 | 0.001 to 0.01 | Cc1c(COc2cc(OCc3cncc(C#N)c3)c(CN3CCCC[C@H]3C(=O)O)cc2Cl)cncc1-c1cccc(OCCCN2CC[C@@H](O)C2)c1C [Example 2005, (S)-1-(5-chloro-2-((5-cyanopyridin-3-yl)methoxy)-4-((5-(3-(3-((R)-3-hydroxypyrrolidin-1-yl)propoxy)-2-methylphenyl)-4-methylpyridin-3-yl)methoxy)benzyl)piperidine-2-carboxylic acid]
17 | 0.001 to 0.01 | Cc1c(COc2cc(OCc3cncc(C#N)c3)c(CN3CCC[C@@]3(C)C(=O)O)cc2Cl)cccc1-c1ccc2ccoc2c1 [Example 1020, (S)-1-(4-((3-(benzofuran-6-yl)-2-methylbenzyl)oxy)-5-chloro-2-((5-cyanopyridin-3-yl)methoxy)benzyl)-2-methylpyrrolidine-2-carboxylic acid]
18 | 0.011 to 0.15 | Cc1c(COc2cc(OCc3cncc(C#N)c3)c(CN3CCCC[C@@H]3C(=O)O)cc2Cl)cccc1-c1ccc2nccnc2c1 [Example 1033, (R)-1-(5-chloro-2-((5-cyanopyridin-3-yl)methoxy)-4-((2-methyl-3-(quinoxalin-6-yl)benzyl)oxy)benzyl)piperidine-2-carboxylic acid]
19 | 0.151 to 10 | Cc1c(COc2cc(OCc3cncc(C#N)c3)c(CN[C@@H](CCCNC(=N)N)C(=O)O)cc2Cl)cccc1-c1ccc2occc2c1 [Example 1014, (S)-2-((4-((3-(benzofuran-5-yl)-2-methylbenzyl)oxy)-5-chloro-2-((5-cyanopyridin-3-yl)methoxy)benzyl)amino)-5-guanidinopentanoic acid]
20 | 0.001 to 0.01 | Cc1c(OCCCN2CCCCC2)cccc1-c1ccnc(COc2cc(OCc3cncc(C#N)c3)c(CN[C@@](C)(CO)C(=O)O)cc2Cl)c1C [Example 2015, (S)-2-((5-chloro-2-((5-cyanopyridin-3-yl)methoxy)-4-((3-methyl-4-(2-methyl-3-(3-(piperidin-1-yl)propoxy)phenyl)pyridin-2-yl)methoxy)benzyl)amino)-3-hydroxy-2-methylpropanoic acid]
21 | 0.011 to 0.15 | Cc1c(COc2cc(OCc3cncc(C#N)c3)c(CNC(C)(C)C(=O)O)cc2Cl)cccc1-c1ccc2occc2c1 [Example 1015, 2-((4-((3-(benzofuran-5-yl)-2-methylbenzyl)oxy)-5-chloro-2-((5-cyanopyridin-3-yl)methoxy)benzyl)amino)-2-methylpropanoic acid]
